# From patent US12077503B2, “Substituted cyclic amides and their use as herbicides” (FMC CORPORATION, priority 2015, dated 2024)
# How the values were obtained:
# Assay type in all cases: in vivo
# [1] = tested on: ragweed (common ragweed, Ambrosia elatior); assay: Test A postemergence; settings: Ambrosia artemisiifolia, post-emergence, 240 h
# Summary of the method: (§1)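 Visual injury scores from 0, no effect, to 100, complete control, were assigned versus untreated controls roughly 10 d after treatment in the greenhouse. Test chemicals, formulated with surfactant in a non-phytotoxic solvent, were applied to planted seeds as a preemergence soil spray or postemergence to one- to two-leaf plants 2 to 10 cm tall, in loam–sand soil.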
# corn (Zea mays) = assay: Test A postemergence; settings: Zea mays, post-emergence, 240 h
# Summary of the method: as §1
# Kochia (Kochia scoparia) [2] = assay: Test A postemergence; settings: Bassia scoparia, post-emergence, 240 h
# Summary of the method: as §1
# [3] = tested on: giant foxtail (Setaria faberii); assay: Test A postemergence; settings: Setaria faberi, post-emergence, 240 h
# Summary of the method: as §1
# [4] = tested on: wheat (Triticum aestivum); assay: Test A postemergence; settings: Triticum aestivum, post-emergence, 240 h
# Summary of the method: as §1
# [5] = tested on: Galium (catchweed bedstraw, Galium aparine); assay: Test A postemergence; settings: Galium, post-emergence, 240 h
# Summary of the method: as §1
# [6] = tested on: barnyardgrass (Echinochloa crus-galli); assay: Test A postemergence; settings: Echinochloa crus-galli, post-emergence, 240 h
# Summary of the method: as §1
# [7] = tested on: pigweed (Amaranthus retroflexus); assay: Test A postemergence; settings: Amaranthus retroflexus, post-emergence, 240 h
# Summary of the method: as §1
# [8] = tested on: blackgrass (Alopecurus myosuroides); assay: Test A postemergence; settings: Alopecurus myosuroides, post-emergence, 240 h
# Summary of the method: as §1
# [9] = tested on: ryegrass, Italian (Italian ryegrass, Lolium multiflorum); assay: Test A postemergence; settings: Lolium multiflorum, post-emergence, 240 h
# Summary of the method: as §1
# [10] = tested on: ragweed (common ragweed, Ambrosia elatior); assay: Test A preemergence; settings: Ambrosia artemisiifolia, pre-emergence, 240 h, 0 to 100 scale where 0 is no effect and 100 is complete control, read-out: Ragweed plant response rating
# Summary of the method: as §1
# Kochia (Kochia scoparia) [11] = assay: Test A preemergence; settings: Bassia scoparia, pre-emergence, 240 h, 0 to 100 scale where 0 is no effect and 100 is complete control, read-out: Kochia plant response rating
# Summary of the method: as §1
# [12] = tested on: giant foxtail (Setaria faberii); assay: Test A preemergence; settings: Setaria faberi, pre-emergence, 240 h, 0 to 100 scale where 0 is no effect and 100 is complete control, read-out: Foxtail, Giant plant response rating
# Summary of the method: as §1
# [13] = tested on: barnyardgrass (Echinochloa crus-galli); assay: Test A preemergence; settings: Echinochloa crus-galli, pre-emergence, 240 h, 0 to 100 scale where 0 is no effect and 100 is complete control, read-out: Barnyardgrass plant response rating
# Summary of the method: as §1
# [14] = tested on: pigweed (Amaranthus retroflexus); assay: Test A preemergence; settings: Amaranthus retroflexus, pre-emergence, 240 h, 0 to 100 scale where 0 is no effect and 100 is complete control, read-out: Pigweed plant response rating
# [15] = tested on: ryegrass, Italian (Italian ryegrass, Lolium multiflorum); assay: Test A preemergence; settings: Lolium multiflorum, pre-emergence, 240 h, 0 to 100 scale where 0 is no effect and 100 is complete control, read-out: Ryegrass, Italian plant response rating
# Summary of the method: as §1
# [16] = tested on: barnyardgrass (Echinochloa crus-galli); assay: Test B flooded paddy test; settings: Echinochloa crus-galli, 250 g ai/ha, Flood; 0 to 100 scale where 0 is no effect and 100 is complete control; read-out: Barnyardgrass plant response rating
# Summary of the method: (§2)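 Response scored visually against untreated controls, 0 = no effect and 100 = complete control, 13–15 d after treatment in the greenhouse. Compounds added to paddy water held 3 cm above soil surface. Treatment given at 2-leaf stage.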
# [17] = tested on: sedge, umbrella (small-flower umbrella sedge, Cyperus difformis); assay: Test B flooded paddy test; settings: Cyperus difformis, 250 g ai/ha, Flood; 0 to 100 scale where 0 is no effect and 100 is complete control; read-out: Sedge, Umbrella plant response rating
# Summary of the method: as §2
# rice (Oryra sativa) = assay: Test B flooded paddy test; settings: Oryza sativa, 250 g ai/ha, Flood; 0 to 100 scale where 0 is no effect and 100 is complete control; read-out: Rice plant response rating
# Summary of the method: as §2
# [18] = tested on: ducksalad (Heteranthera limosa); assay: Test B flooded paddy test; settings: Heteranthera limosa, 250 g ai/ha, Flood; 0 to 100 scale where 0 is no effect and 100 is complete control; read-out: Ducksalad plant response rating
# Summary of the method: as §2
# [19] = 125 g ai/ha, preemergence, approx. 10 d
compound,measurement,setting,value
CN1C[C@H](c2cccc([Si](C)(C)C)c2)[C@@H](C(=O)Nc2cccc(F)c2F)C1=O [Compound 1166],pest or weed control at 125 g/ha,"[1]; 125 g ai/ha, postemergence, visual injury vs untreated controls after approx. 10 d, 0 = no effect, 100 = complete control, read-out: Ragweed plant response rating (0 to 100 scale)",0%
same,pest or weed control at 31 g/ha,"[1]; Postemergence, 31 g ai/ha, visual injury after approx. 10 d, 0 to 100 scale, 0 no effect, 100 complete control, read-out: Plant response rating, Ragweed",0%
same,plant injury at 125 g/ha,"corn (Zea mays); 125 g ai/ha, postemergence, visual injury vs untreated controls after approx. 10 d, 0 = no effect, 100 = complete control, read-out: Corn plant response rating (0 to 100 scale)",0%
same,"Corn plant response rating (crop injury, 0 = no effect, 100 = complete kill) at 31 g/ha","corn (Zea mays); Postemergence, 31 g ai/ha, visual injury after approx. 10 d, 0 to 100 scale, 0 no effect, 100 complete control",0%
same,pest or weed control at 125 g/ha,"Kochia (Kochia scoparia) [2]; 125 g ai/ha, postemergence, visual injury vs untreated controls after approx. 10 d, 0 = no effect, 100 = complete control, read-out: Kochia plant response rating (0 to 100 scale)",0%
same,pest or weed control at 31 g/ha,"Kochia (Kochia scoparia) [2]; Postemergence, 31 g ai/ha, visual injury after approx. 10 d, 0 to 100 scale, 0 no effect, 100 complete control, read-out: Plant response rating, Kochia",0%
same,pest or weed control at 125 g/ha,"[3]; 125 g ai/ha, postemergence, visual injury vs untreated controls after approx. 10 d, 0 = no effect, 100 = complete control, read-out: Foxtail, Giant plant response rating (0 to 100 scale)",20%
same,pest or weed control at 31 g/ha,"[3]; Postemergence, 31 g ai/ha, visual injury after approx. 10 d, 0 to 100 scale, 0 no effect, 100 complete control, read-out: Plant response rating, Foxtail, Giant",0%
same,plant injury at 125 g/ha,"[4]; 125 g ai/ha, postemergence, visual injury vs untreated controls after approx. 10 d, 0 = no effect, 100 = complete control, read-out: Wheat plant response rating (0 to 100 scale)",0%
same,plant injury at 31 g/ha,"[4]; Postemergence, 31 g ai/ha, visual injury after approx. 10 d, 0 to 100 scale, 0 no effect, 100 complete control, read-out: Plant response rating, Wheat",0%
same,pest or weed control at 125 g/ha,"[5]; 125 g ai/ha, postemergence, visual injury vs untreated controls after approx. 10 d, 0 = no effect, 100 = complete control, read-out: Galium plant response rating (0 to 100 scale)",0%
same,pest or weed control at 31 g/ha,"[5]; Postemergence, 31 g ai/ha, visual injury after approx. 10 d, 0 to 100 scale, 0 no effect, 100 complete control, read-out: Plant response rating, Galium",0%
same,pest or weed control at 125 g/ha,"[6]; 125 g ai/ha, postemergence, visual injury vs untreated controls after approx. 10 d, 0 = no effect, 100 = complete control, read-out: Barnyardgrass plant response rating (0 to 100 scale)",0%
same,pest or weed control at 31 g/ha,"[6]; Postemergence, 31 g ai/ha, visual injury after approx. 10 d, 0 to 100 scale, 0 no effect, 100 complete control, read-out: Plant response rating, Barnyardgrass",0%
same,pest or weed control at 125 g/ha,"[7]; 125 g ai/ha, postemergence, visual injury vs untreated controls after approx. 10 d, 0 = no effect, 100 = complete control, read-out: Pigweed plant response rating (0 to 100 scale)",0%
same,pest or weed control at 31 g/ha,"[7]; Postemergence, 31 g ai/ha, visual injury after approx. 10 d, 0 to 100 scale, 0 no effect, 100 complete control, read-out: Plant response rating, Pigweed",0%
same,pest or weed control at 125 g/ha,"[8]; 125 g ai/ha, postemergence, visual injury vs untreated controls after approx. 10 d, 0 = no effect, 100 = complete control, read-out: Blackgrass plant response rating (0 to 100 scale)",0%
same,pest or weed control at 31 g/ha,"[8]; Postemergence, 31 g ai/ha, visual injury after approx. 10 d, 0 to 100 scale, 0 no effect, 100 complete control, read-out: Plant response rating, Blackgrass",0%
same,pest or weed control at 125 g/ha,"[9]; 125 g ai/ha, postemergence, visual injury vs untreated controls after approx. 10 d, 0 = no effect, 100 = complete control, read-out: Ryegrass, Italian plant response rating (0 to 100 scale)",0%
same,pest or weed control at 31 g/ha,"[9]; Postemergence, 31 g ai/ha, visual injury after approx. 10 d, 0 to 100 scale, 0 no effect, 100 complete control, read-out: Plant response rating, Ryegrass, Italian",0%
same,pest or weed control at 31 g/ha,"[10]; 31 g ai/ha, Preemergence",0%
same,pest or weed control at 125 g/ha,[10]; [19],0%
same,pest or weed control at 31 g/ha,"Kochia (Kochia scoparia) [11]; 31 g ai/ha, Preemergence",0%
same,pest or weed control at 125 g/ha,Kochia (Kochia scoparia) [11]; [19],0%
same,pest or weed control at 31 g/ha,"[12]; 31 g ai/ha, Preemergence",20%
same,pest or weed control at 125 g/ha,[12]; [19],80%
same,pest or weed control at 31 g/ha,"[13]; 31 g ai/ha, Preemergence",0%
same,pest or weed control at 125 g/ha,[13]; [19],20%
same,pest or weed control at 31 g/ha,"[14]; 31 g ai/ha, Preemergence",0%
same,pest or weed control at 125 g/ha,[14]; [19],0%
same,pest or weed control at 31 g/ha,"[15]; 31 g ai/ha, Preemergence",0%
same,pest or weed control at 125 g/ha,[15]; [19],0%
same,pest or weed control at 250 g/ha,[16],40%
same,pest or weed control at 250 g/ha,[17],0%
same,pest or weed control at 250 g/ha,rice (Oryra sativa),25%
same,pest or weed control at 250 g/ha,[18],30%
